Common to all, as to assay: NCI-60 cell line screen, 48 h
The subject of experiment [1] is 786-0 renal.
Experiment [2] deals with ACHN renal.
For experiment [3], the system named is CCRF-CEM leukemia.
In experiment [4] the test system is HCC-2998 colon.
For experiment [5], the system named is MALME-3M melanoma.
Experiment [6] relates to NCI-H522 lung.
Experiment [7] concerns OVCAR-3 ovarian.
For experiment [8], the system named is OVCAR-5 ovarian.
For experiment [9], the system named is RXF 393 renal.
For experiment [10], the system named is SF-268 CNS.

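Five concentrations, 48 hours, 96-well plates. The concentration for 50% growth inhibition is given as GI50. Definition used: TGI = concentration required for complete inhibition of growth.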 Bounds are passed on as bounds.

As to `COc1ccc2cc(/C=C/C(=O)c3ccc(Cl)cc3Cl)ccc2c1`, the GI50 in experiment [1] is 36.7 µM; in experiment [2], 35.4 µM; in experiment [3], 21 µM; in [4] it was 20.6 µM; in experiment [5], 27 µM; in experiment [6], 21.6 µM. The GI50 in experiment [7] is 26.2 µM; in experiment [8], 45.7 µM; in experiment [9] it was 20.4 µM; in [10] it was 32.9 µM. The TGI in experiment [1] was more than 100 µM; in experiment [2], more than 100 µM; in experiment [3], 57.2 µM; in experiment [4] it was 48.8 µM; in [5], 73.9 µM; in experiment [6], more than 100 µM. Moreover, the TGI in experiment [7] is more than 100 µM; in [8] it was more than 100 µM; in [9], 65.6 µM; in experiment [10], more than 100 µM.

On to `CCOC(=O)Nc1nc2ccc(OC)cc2s1`, for which the GI50 in experiment [1], in experiment [2], in [3], in experiment [4], in [5] and in experiment [6] was more than 100 µM each time. In addition, the GI50 in experiment [7], in experiment [8], in [9] and in experiment [10] was more than 100 µM in each case. Moreover, the TGI in experiment [1], in experiment [2], in experiment [3], in experiment [4], in [5] and in experiment [6] was more than 100 µM each time. The TGI in [7], in experiment [8], in [9] and in [10] was more than 100 µM each time.

In the case of `COc1cc(F)c(F)c(Nc2ccc(I)cc2F)c1NS(=O)(=O)C1(C[C@H](O)CO)CC1`, the GI50 in experiment [1] is more than 4.02 µM; in experiment [2], 0.897 µM; in [3], more than 9.26 µM; in experiment [4], 0.0206 µM; in experiment [5], 0.0198 µM; in experiment [6], 3.72 µM. In addition, the GI50 in experiment [7] is more than 6.76 µM; in experiment [8], 0.0597 µM; in experiment [9], 1.05 µM; in [10], 5.72 µM. The TGI is more than 10 µM in experiment [1]; more than 10 µM in experiment [2]; more than 10 µM in [3]; more than 4.24 µM in experiment [4]; 0.22 µM in experiment [5]; more than 10 µM in experiment [6]. The TGI was more than 10 µM in experiment [7], more than 10 µM in experiment [8], more than 9.5 µM in experiment [9] and more than 10 µM in experiment [10].

In the case of `CC1=CC(=O)CC2(C)CC[C@@H]3C[C@]12OC3(C)C` (stereo not given in full), the TGI in [1], in experiment [2], in [3], in experiment [4], in [5] and in experiment [6] was more than 100 µM in each case. The TGI in [7], in experiment [8], in [9] and in [10] was more than 100 µM in each case.

On to `COc1ccccc1C#Cc1ccccc1C#CCCCCO`, for which the GI50 is 13.6 µM in experiment [1]; 19.4 µM in [2]; 16.3 µM in experiment [3]; 17.9 µM in [4]; 22.4 µM in [5]; 16.3 µM in experiment [6]. In addition, the GI50 in experiment [7] was 19.8 µM; in [8], 16.8 µM; in experiment [9], 13.8 µM; in experiment [10] it was 18 µM. Moreover, the TGI was 29.7 µM in [1]; 38.6 µM in experiment [2]; 85.6 µM in experiment [3]; 35.4 µM in experiment [4]; 65.6 µM in [5]; 33.8 µM in experiment [6]. The TGI in [7] was found to be 47.2 µM; in experiment [8], 34.1 µM; in experiment [9], 29.8 µM; in [10], 45.2 µM.

Consider `O=c1/c(=C/c2ccccc2[N+](=O)[O-])sc2nc3ccccc3n12`, for which the TGI is more than 46.4 µM in experiment [1]; more than 46.4 µM in [2]; 22.7 µM in experiment [3]; more than 46.4 µM in [4]; more than 46.4 µM in experiment [5]; more than 100 µM in [6]. Moreover, the TGI in experiment [7] is more than 31.6 µM; in experiment [8] it was more than 46.4 µM; in experiment [9], 41.9 µM; in experiment [10], more than 46.4 µM.

Turning to `COc1cc2ncn(-c3cc(OCc4ccccc4C(F)(F)F)c(C(=O)N(C)C)s3)c2cc1OC`, the GI50 in [1] was more than 25 µM; in experiment [2], more than 25 µM; in experiment [3] it was more than 22.1 µM; in [4], more than 25 µM; in experiment [5], more than 25 µM; in experiment [6], 17.3 µM. Besides, the GI50 is more than 21.8 µM in experiment [7], more than 25 µM in [8], 8.53 µM in experiment [9] and more than 25 µM in experiment [10]. Moreover, the TGI in experiment [1], in experiment [2], in experiment [3], in [4], in experiment [5] and in experiment [6] was more than 25 µM in each case. Besides, the TGI in experiment [7] was more than 25 µM; in [8], more than 25 µM; in [9], more than 18.7 µM; in experiment [10], more than 25 µM.

For the origin of these results see PubChem BioAssay (NCI).
